Test results reported in patent US20070134693A1, “Method for modulating the binding activity of a novel ICAM-3 binding receptor on sinusoidal endothelial cells in liver and lymph nodes” (priority 2000, published 2007).

Key:
Assay type in all cases: cell-based
L-SIGN [1] = biological target: T1, L-SIGN (Homo sapiens, UniProt Q9H2X3); assay: Fluorescent beads adhesion assay, K562-L-SIGN cells; settings: for inhibition of adhesion of ICAM-3-coated fluorescent beads to L-SIGN: FIG. 4A; for inhibition of adhesion of HIV-1 gp120-coated fluorescent beads to L-SIGN: FIG. 4B
T1 construct: The L-SIGN cDNA clone isolated from placental mRNA contained the entire coding region of the gene; expressed in transfected cells
T1 sequence (Q9H2X3 1-376 isoform Q9H2X3-8): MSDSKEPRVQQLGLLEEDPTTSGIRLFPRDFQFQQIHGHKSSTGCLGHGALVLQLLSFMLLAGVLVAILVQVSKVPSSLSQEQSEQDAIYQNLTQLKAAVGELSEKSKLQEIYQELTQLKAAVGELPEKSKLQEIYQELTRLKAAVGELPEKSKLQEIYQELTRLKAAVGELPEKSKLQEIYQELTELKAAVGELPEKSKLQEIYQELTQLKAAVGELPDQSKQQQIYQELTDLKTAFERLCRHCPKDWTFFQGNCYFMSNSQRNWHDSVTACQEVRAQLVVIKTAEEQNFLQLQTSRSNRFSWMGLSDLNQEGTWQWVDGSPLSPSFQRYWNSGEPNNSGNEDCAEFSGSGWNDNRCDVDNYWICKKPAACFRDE
Procedure: (§1) FIG. 4. L-SIGN binds ICAM-3 (A) and HIV-1 gp120 (B). Adhesion of ICAM-3 and gp120 to the K562-L-SIGN and K562-DC-SIGN cells was measured with the fluorescent bead adhesion assay (Geijtenbeek, T. B. et al., 1999, Blood 94:754-764). The y-axis represents the percent cells binding ligand-coated fluorescent beads. The L-SIGN-cross-reacting mAb AZN-D2 (20 μg/ml) and AZN-D3 (20 μg/ml) inhibit the adhesion of ICAM-3 and gp120 to L-SIGN, in contrast to the DC-SIGN-specific mAb AZN-D1 (20 μg/ml). […] Adhesion of both ligands to mock transfectants was less than 5%. One representative experiment out of three is shown (SD<5%).
(§2) Carboxylate-modified TransFluorSpheres (488/645 nm, 1.0 μm; Molecular Probes, Eugene, Oreg.) were coated with ICAM-3 as was previously described for ICAM-1 (Geijtenbeek, T. B. et al., 1999, Blood 94:754-764). Fluorescent beads were coated with M-tropic HIV-1MN envelope glycoprotein gp120 as follows: Streptavidin-coated fluorescent beads were incubated with biotinylated F(ab′)2 fragment rabbit anti-sheep IgG (6 μg/ml; Jackson Immunoresearch) followed by an overnight incubation with sheep-anti-gp120 antibody D7324 (Aalto Bio Reagents Ltd, Dublin, Ireland) at 4° C. The beads were washed and incubated with 250 ng/ml purified HIV-1 gp120 (provided by Immunodiagnostics, Inc through the NIH AIDS Research and Reference Reagent Program) overnight at 4° C.
(§3) The fluorescent beads adhesion assay was performed as described by Geijtenbeek et al.(l999, supra). Briefly, cells were resuspended in adhesion buffer (20 mM Tris-HCl pH 8.0, 150 mM NaCl, 1 mM CaCl2, 2 mM MgCl2, 0.5% BSA) at a final concentration of 5×10^6 cells/ml. 50,000 cells were pre-incubated with mAb (20 μg/ml) for 10 min at room temperature. Ligand-coated fluorescent beads (20 beads/cell) were added and the suspension was incubated for 30 min at 37° C. Adhesion was determined by measuring the percentage of cells that bound fluorescent beads using flow cytometry on a FACScan (Becton Dickinson, Oxnard, Calif.).

DC-SIGN [2] = biological target: T2, DC-SIGN (Homo sapiens, UniProt Q9NNX6); assay: Fluorescent beads adhesion assay, K562-DC-SIGN cells; settings: for inhibition of adhesion of ICAM-3-coated fluorescent beads to DC-SIGN: FIG. 4A; for inhibition of adhesion of HIV-1 gp120-coated fluorescent beads to DC-SIGN: FIG. 4B
T2 construct: expressed in transfected cells
T2 sequence (Q9NNX6 1-404): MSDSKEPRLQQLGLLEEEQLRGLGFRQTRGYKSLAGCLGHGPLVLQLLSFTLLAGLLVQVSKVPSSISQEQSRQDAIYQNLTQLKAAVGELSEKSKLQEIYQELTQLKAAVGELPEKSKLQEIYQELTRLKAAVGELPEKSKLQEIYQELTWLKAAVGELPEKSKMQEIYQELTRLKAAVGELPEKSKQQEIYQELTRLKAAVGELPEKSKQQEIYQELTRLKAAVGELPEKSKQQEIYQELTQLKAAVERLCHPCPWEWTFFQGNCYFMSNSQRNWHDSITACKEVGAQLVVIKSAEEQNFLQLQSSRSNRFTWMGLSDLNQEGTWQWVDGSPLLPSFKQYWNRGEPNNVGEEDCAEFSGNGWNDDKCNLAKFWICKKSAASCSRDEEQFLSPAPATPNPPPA
Procedure: as §1, §2, §3

DC-SIGN [3] = biological target: T2, DC-SIGN; assay: HIV-1 enhancement assay, pseudotyped HIV-1 ADA, HEK293T cells expressing DC-SIGN co-cultured with activated T cells; settings: preincubation 20 μg/ml, after two days, FIG. 5B
Procedure: (§4) FIG. 5. L-SIGN captures and enhances infection of T cells with HIV-1 in trans. (A) L-SIGN captures HIV-1 and transmits it to target cells. Stable DC-SIGN or L-SIGN expressing THP-1 transfectants were pre-incubated with HIV-luc/JRFL pseudovirions to allow capture of the virus. Cells were washed and THP-1 transfectants were co-cultured with Hut/CCR5 target cells. Cell lysates were obtained after 3 days and analyzed for luciferase activity. For each of the co-culture conditions employed, mock infected controls were uniformly less than 100 counts per second in activity. Each data set represents the mean of four separate wells of infected cells. One representative experiment out of two is shown. […] Infectivity was determined after two days by measuring luciferase activity. […] Culture supernatants were collected at day 14 after K562-T cell co-culture and HIV-1 production was measured using ELISA to determine p24 antigen levels. […]
(§5) The infection assays were performed as described previously (Geijtenbeek, 2000a, supra; Geijtenbeek 2000b, supra). […] Viral stocks were evaluated by limiting dilution on GHOST CXCR4/CCR5 and 293T-CD4-CCR5 cells.
(§6) In contrast, HIV-1 enhancement assays utilized suboptimal concentrations of virus (typically <0.05 m.o.i.) without a wash step. […] Cell lysates were obtained after several days and analyzed for either luciferase activity or p24 antigen levels. […]

L-SIGN [4] = biological target: T1, L-SIGN; assay: HIV-1 enhancement assay, pseudotyped HIV-1 ADA, HEK293T cells expressing L-SIGN co-cultured with activated T cells; settings: preincubation 20 μg/ml, after two days, FIG. 5B
Procedure: as §4, §5, §6

O=C(O)CN(CCOCCOCCN(CC(=O)O)CC(=O)O)CC(=O)O [EGTA]
inhibition of adhesion of ICAM-3-coated fluorescent beads to L-SIGN (L-SIGN [1]; 5 mM): inhibited | inhibition of adhesion of HIV-1 gp120-coated fluorescent beads to L-SIGN (L-SIGN [1]; 5 mM): inhibited | inhibition of adhesion of ICAM-3-coated fluorescent beads to DC-SIGN (DC-SIGN [2]; 5 mM): inhibited | inhibition of adhesion of HIV-1 gp120-coated fluorescent beads to DC-SIGN (DC-SIGN [2]; 5 mM): inhibited

mannan
inhibition of DC-SIGN-mediated enhancement of HIV-1 infection of T cells in trans (luciferase activity) (DC-SIGN [3]): efficiently inhibited | inhibition of adhesion of ICAM-3-coated fluorescent beads to L-SIGN (L-SIGN [1]; 20 μg/ml): inhibited | inhibition of adhesion of HIV-1 gp120-coated fluorescent beads to L-SIGN (L-SIGN [1]; 20 μg/ml): inhibited | inhibition of adhesion of ICAM-3-coated fluorescent beads to DC-SIGN (DC-SIGN [2]; 20 μg/ml): inhibited | inhibition of adhesion of HIV-1 gp120-coated fluorescent beads to DC-SIGN (DC-SIGN [2]; 20 μg/ml): inhibited | inhibition of L-SIGN-mediated enhancement of HIV-1 infection of T cells in trans (luciferase activity) (L-SIGN [4]): efficiently inhibited
